Data published in patent US12319652B2, “Salts and solid forms of (R)-1-(5-methoxy-1H-indol-1-yl)-N,N-dimethylpropan-2-amine” (priority 2021, dated 2025).

Columns and labels:
[1] = Equilibrium humidity evaluation of crystalline compound 1 HCl Form A (95% RH/20° C.); assay type: physicochemical; settings: for XRPD (t = 0) / XRPD (t = 5 d) / XRPD (t = 10 d): 95% RH @ 20° C.; for DSC onset / XRPD: t = 10 days, 95 % RH @ 20° C.
Method: The stability of crystalline compound 1 HCl Form A was evaluated. Absorbent compound 1·Cl (Form A), (100 mg) was maintained, open-capped at 95% RH/20° C. and monitored at t=0, t=5 d and t=10 d, time points.
While absorbent Compound 1 HCl Form A), (100 mg) was placed open-capped inside double, cable-tied, electrostatic polythene bags (to mimic a typical packaging configuration) and placed inside the same humidity chamber at 95% RH at 20° C. and monitored at t=0, t=5 d and t=10 d time points. Stability of compound 1·HCl (Form A) at 40° C./75% RH was examined as part of the salt screen, and was stable over 10 d.

[2] = Heat-up/cool-down crystallization screen of Compound 1 HCl
Method: A heat up/cool down crystallization screen was performed. An compound 1 HCl Form A was used as input material. […]

[3] = Solubility determinations in SIF buffers (FaSSIF, FeSSIF, FaSSGF); assay type: physicochemical; settings: FaSSIF, FeSSIF and FaSSGF, 37° C., 24 h, concentration tested 30 mg/ml
Method: At this stage ca. 1 g of each front-runner salt form was prepared. Salt forms that offered significant solubility and stability advantages over the non-ionized API were prioritized. […] Scale Up
The solubility of the salts below was determined in FaSSIF, FeSSIF and FaSSGF by reference to the calibration curve of amorphous compound 1.
Separate portions of compound 1 were weighed out into aluminum boats and were charged to the relevant volumetric flasks. Solutions were made to volume with 1 to 1 (v/v) acetonitrile/purified water to give calibrants of known API concentrations and analyzed by HPLC, suitable to determine the concentration of compound 1 free base in the SIF buffer solubility study.
Each sample (150 mg) was suspended in the relevant SIF buffer (5.0 ml), to give a concentration of 30 mg/ml and maintain at 37° C. for 24 h. The pH was adjusted using 1 M HCl or 1 M NaOH, to ensure that the suspension remains in range.
Sample (1 ml) of the well-stirred representative suspensions was obtained at 1 h, 3 h, 6 h and 24 h and the pH was recorded. The pH of the bulk suspension was re-adjusted when necessary. The obtained sample from each vial was centrifuged, and the supernatant was analysed by HPLC (note, the analyte was diluted, when outside of the calibration range); XRPD analysis was performed on the wet sample pellet for evidence of form change, as well as on the oven-dried pellet (undervacuum at 40° C.).

[4] = assay type: physicochemical; settings: 10 days; listed as compound 1·HCl (Form A)
Method: Equilibrium Humidity Evaluation (40° C./75% RH for 10 Days)
100 mg portions of compound 1 salts (for inputs see table below) were placed in the relevant open vials. The powders were finely divided and distributed evenly over the base of the vial, such that equal material coverage across the panel was observed. These samples were then maintained 40°C. under 75% RH. The samples were sub-sampled at intervals of 5 and 10 days and analysed by ^1H NMR, HPLC, XRPD, DSC, TGA and PLM, for evidence of phase change or chemical degradation (FIG. 269-297).

[5] = Dynamic vapor sorption (DVS); assay type: physicochemical; settings: for DVS isotherm type / hygroscopicity: 0 to 90 to 0% RH
Method: There are two main methods to use, one is by time where the equilibration is given by a fixed time, i.e., 1 hour per step and is appropriate for an unknown phase. The second, is by mass per time unit (dm/dt) of 0.002%/min; that is when the difference in weight is less than 0.002%, the instrument moves onto the next step. For unknown hygroscopicity, the method by time is indicated because it gives an idea of water affinity without wasting much time. Ideally the analyses are repeated using the mass equilibration method to confirm. By experience for hygroscopic samples, the analysis can continue for days. For non-hygroscopic samples the difference between the two methods may not be significant.
Consequently, amorphous batch 1 was analyzed by the fixed time method and once compound 1 fumarate crystalline polymorphic Form A was generated the analyses was repeated as mass per unit time equilibrated @dm/dt ([…]) and is given below (refer to FIG. 12).
(§1) The moisture sorption properties of the feed API were analysed by DVS Intrinsic instrument (Surface Measurement System). Approximately 20 to 50 mg of API was weighed onto an aluminium pan and loaded into the instrument equilibrated at 25° C. The sample was equilibrated under a dry atmosphere (0% relative humidity) for 60 minutes, before increasing the humidity from 0% to 30% at 5%4 step increment and from 30% to 90% at 10% step increment. A desorption cycle was also applied from 90% to 30% (10% step decrement) and from 30% to 0% (5% step decrement). A rate of change in mass per time unit (dm/dt) of 0.002%/min was set as the equilibrium parameter. Kinetic and isotherm graphs were calculated.
Specimens were equilibrated at 0% RH for 60 min, prior to DVS analyses (stepped increment % RH up to 90% RH and stepped decrement % RH down to 0% RH.
as §1, with “5%” for “5%4”

[6] = Amorphous forms and thermal study (glass temperature Tg by DSC/TGA); assay type: physicochemical
[7] = Double polyethylene bagged, open vial
[8] = 2-Propanol 3.0 vol + Water 75 μl
[9] = Chlorobenzene 3.0 vol + MeOH 175 μl
[10] = Ethyl formate 3.0 vol + MeOH 225 μl
[11] = Isopropyl acetate 3.0 vol + IPA 3725 μl
[12] = Nitromethane 3.0 vol + MeOH 50 μl

COc1ccc2c(ccn2C[C@@H](C)N(C)C)c1.Cl [compound 1 HCl Form A]
XRPD (t = 0) [1, 7]: Form A
XRPD (t = 5 d) [1, 7]: Form A
XRPD (t = 10 d) [1, 7]: Form A
DSC onset [1, 7]: 203.7 °C
XRPD [1, 7]: Form A
XRPD (t = 0) ([1]; Open vial): Form A
XRPD (t = 5 d) ([1]; Open vial): Form A
XRPD (t = 10 d) ([1]; Open vial): Form A
DSC onset ([1]; Open vial): 204.4 °C
XRPD ([1]; Open vial): Form A
Observations (t = -, T = 70° C.) [2, 8]: Pink solution
XRPD (moist pellet) [2, 8]: Form A
XRPD (oven dried) [2, 8]: Form A
Observations (t = -, T = 70° C.) ([2]; Acetone 3.0 vol + Water 50 μl): Pink solution
XRPD (moist pellet) ([2]; Acetone 3.0 vol + Water 50 μl): Form A
XRPD (oven dried) ([2]; Acetone 3.0 vol + Water 50 μl): Form A
Observations (t = -, T = 70° C.) [2, 9]: Pink solution
XRPD (moist pellet) [2, 9]: Form A
XRPD (oven dried) [2, 9]: Form A
Observations (t = -, T = 70° C.) ([2]; DCM 3.0 vol + MeOH 125 μl): Pink solution
XRPD (moist pellet) ([2]; DCM 3.0 vol + MeOH 125 μl): Form A
XRPD (oven dried) ([2]; DCM 3.0 vol + MeOH 125 μl): Form A
Observations (t = -, T = 70° C.) ([2]; EtOAc 3.0 vol + EtOH 1375 μl): Pink solution
XRPD (moist pellet) ([2]; EtOAc 3.0 vol + EtOH 1375 μl): Form A
XRPD (oven dried) ([2]; EtOAc 3.0 vol + EtOH 1375 μl): Form A
Observations (t = -, T = 70° C.) ([2]; EtOH 3.0 vol + Water 50 μl): Pink solution
XRPD (moist pellet) ([2]; EtOH 3.0 vol + Water 50 μl): Form A
XRPD (oven dried) ([2]; EtOH 3.0 vol + Water 50 μl): Form A
Observations (t = -, T = 70° C.) [2, 10]: Pink solution
XRPD (moist pellet) [2, 10]: Form A
XRPD (oven dried) [2, 10]: Form A
Observations (t = -, T = 70° C.) [2, 11]: Suspension
XRPD (moist pellet) [2, 11]: Form A
XRPD (oven dried) [2, 11]: Form A
Observations (t = -, T = 70° C.) ([2]; MEK 3.0 vol + Water 50 μl): Pink solution
XRPD (moist pellet) ([2]; MEK 3.0 vol + Water 50 μl): Form A
XRPD (oven dried) ([2]; MEK 3.0 vol + Water 50 μl): Form A
Observations (t = -, T = 70° C.) ([2]; MeCN 3.0 vol + Water 25 μl): Pink solution
XRPD (oven dried) ([2]; MeCN 3.0 vol + Water 25 μl): Form A
Observations (t = -, T = 70° C.) ([2]; MeOH 3.0 vol + water 25 μl): Pink solution
XRPD (moist pellet) ([2]; MeOH 3.0 vol + water 25 μl): Form A
XRPD (oven dried) ([2]; MeOH 3.0 vol + water 25 μl): Form A
Observations (t = -, T = 70° C.) ([2]; MeTHF 3.0 vol + MeOH 425 μl): Pink solution
XRPD (moist pellet) ([2]; MeTHF 3.0 vol + MeOH 425 μl): Form A
XRPD (oven dried) ([2]; MeTHF 3.0 vol + MeOH 425 μl): Form A
Observations (t = -, T = 70° C.) ([2]; Methyl acetate 3.0 vol + Water 75 μl): Pink solution
Observations (t = -, T = 70° C.) [2, 12]: Pink solution
XRPD (moist pellet) [2, 12]: Form A
XRPD (oven dried) [2, 12]: Form A
Observations (t = -, T = 70° C.) ([2]; TBME 3.0 vol + MeOH 425 μl): Pink solution
XRPD (moist pellet) ([2]; TBME 3.0 vol + MeOH 425 μl): Form A
XRPD (oven dried) ([2]; TBME 3.0 vol + MeOH 425 μl): Form A
Observations (t = -, T = 70° C.) ([2]; THE 3.0 vol + Water 50 μl): Pink solution
XRPD (moist pellet) ([2]; THE 3.0 vol + Water 50 μl): Form A
XRPD (oven dried) ([2]; THE 3.0 vol + Water 50 μl): Form A
Observations (t = -, T = 70° C.) ([2]; Toluene 3.0 vol + MeOH 200 μl): Pink solution
XRPD (moist pellet) ([2]; Toluene 3.0 vol + MeOH 200 μl): Form A
XRPD (oven dried) ([2]; Toluene 3.0 vol + MeOH 200 μl): Form A
Observations (t = -, T = 70° C.) ([2]; Water 3.0 vol, no co-solvent): Pink solution

COc1ccc2c(ccn2C[C@@H](C)N(C)C)c1.Cl [Crystalline compound 1 HCl Form A]
Solubility in SIF buffers [3]: Solubility in SIF buffers: Soluble in all SIF buffers at 37 °C during 24 h.
Water uptake by TG analyses ([1]; 20° C./95% RH, open-capped and double bagged vials, 10-day period): did not show any water uptake
Stability at 40° C./75% RH [4]: stable
DVS isotherm type / hygroscopicity ([5]; listed as Compound 1·HCl Form A): slightly hygroscopic
DVS isotherm type / hygroscopicity ([5]; listed as crystalline compound 1 HCl Form A): Slightly hygroscopic
DVS mass change at 0.0% RH ([5]; desorption step, dm/dt <0.002%): 0.0239%
DVS mass change at 5.0% RH ([5]; desorption step, dm/dt <0.002%): 0.0344%
DVS mass change at 10.0% RH ([5]; desorption step, dm/dt <0.002%): 0.0455%
DVS mass change at 15.0% RH ([5]; desorption step, dm/dt <0.002%): 0.0547%
DVS mass change at 20.0% RH ([5]; desorption step, dm/dt <0.002%): 0.0648%
DVS mass change at 25.0% RH ([5]; desorption step, dm/dt <0.002%): 0.0714%
DVS mass change at 30.0% RH ([5]; desorption step, dm/dt <0.002%): 0.0860%
DVS mass change at 40.0% RH ([5]; desorption step, dm/dt <0.002%): 0.0968%
DVS mass change at 50.0% RH ([5]; desorption step, dm/dt <0.002%): 0.1367%
DVS mass change at 60.0% RH ([5]; desorption step, dm/dt <0.002%): 0.1671%
DVS mass change at 70.0% RH ([5]; desorption step, dm/dt <0.002%): 0.2211%
DVS mass change at 80.0% RH ([5]; desorption step, dm/dt <0.002%): 0.2935%
DVS desorption behaviour (hysteresis) ([5]; during desorption, listed as crystalline compound 1 HCl Form A): held on to a little water at 0% RH
DVS mass change at 0.0% RH ([5]; sorption step, dm/dt <0.002%): DVS 0 to 90 to 0% RH (dm/dt <0.002%): 0.0 (0.0011%), 5.0
DVS mass change at 5.0% RH ([5]; sorption step, dm/dt <0.002%): 0.0078%
DVS mass change at 10.0% RH ([5]; sorption step, dm/dt <0.002%): 0.0161%
DVS mass change at 15.0% RH ([5]; sorption step, dm/dt <0.002%): 0.0248%
DVS mass change at 20.0% RH ([5]; sorption step, dm/dt <0.002%): 0.0329%
DVS mass change at 25.0% RH ([5]; sorption step, dm/dt <0.002%): 0.0379%
DVS mass change at 30.0% RH ([5]; sorption step, dm/dt <0.002%): 0.0462%
DVS mass change at 40.0% RH ([5]; sorption step, dm/dt <0.002%): 0.0659%
DVS mass change at 50.0% RH ([5]; sorption step, dm/dt <0.002%): 0.0961%
DVS mass change at 60.0% RH ([5]; sorption step, dm/dt <0.002%): 0.1388%
DVS mass change at 70.0% RH ([5]; sorption step, dm/dt <0.002%): 0.1902%
DVS mass change at 80.0% RH ([5]; sorption step, dm/dt <0.002%): 0.2647%
DVS mass change at 90.0% RH ([5]; sorption step, dm/dt <0.002%): 0.4599%

COc1ccc2c(ccn2C[C@@H](C)N(C)C)c1.Cl [amorphous compound 1 HCl]
TGA % Δwt. ([6]; 206.7° C., comment: De-solvation): −18.2%,
DSC measurements, Endset ([6]; DSC thermal event Tg): 48.35 °C
DSC measurements, Integral ([6]; DSC thermal event Tg): −2.2 Jg^−1
DSC measurements, Onset ([6]; DSC thermal event Tg): 37.07 °C
DSC measurements, Peak ([6]; DSC thermal event Tg): 43.00 °C
Form Assignment ([6]; heated up past the melt event on a hot stage microscope): Amorphous
